Data from BigSolDB 2.1.

For O=C(O)CNC(=O)C(=O)NCC(=O)O, the solubility (mole fraction) (in DMF, 293.15 K) was 0.0292, the solubility (mole fraction) (in DMF, 298.15 K) was 0.0401 and the solubility (mole fraction) (in DMF, 303.15 K) was 0.0519. For the same compound, the solubility (mole fraction) (in DMF, 308.15 K) was 0.0629, the solubility (mole fraction) (in DMF, 313.15 K) was 0.0732 and the solubility (mole fraction) (in DMF, 318.15 K) was 0.082. It also gave a solubility (mole fraction) (in DMF, 323.15 K) of 0.0879, a solubility (mole fraction) (in DMF, 328.15 K) of 0.0909 and a solubility (mole fraction) (in DMF, 333.15 K) of 0.0923. It also gave a solubility (mole fraction) (in DMSO, 293.15 K) of 0.0675, a solubility (mole fraction) (in DMSO, 298.15 K) of 0.0736 and a solubility (mole fraction) (in DMSO, 303.15 K) of 0.0807. For the same compound, the solubility (mole fraction) (in DMSO, 308.15 K) was 0.0879, the solubility (mole fraction) (in DMSO, 313.15 K) was 0.0963 and the solubility (mole fraction) (in DMSO, 318.15 K) was 0.105. The solubility (mole fraction) (in DMSO, 323.15 K) was 0.114, the solubility (mole fraction) (in DMSO, 328.15 K) was 0.124 and the solubility (mole fraction) (in DMSO, 333.15 K) was 0.136. For the same compound, the solubility (mole fraction) (in THF, 293.15 K) was 3.5e-06, the solubility (mole fraction) (in THF, 298.15 K) was 1.41e-05 and the solubility (mole fraction) (in THF, 303.15 K) was 4.17e-05. For the same compound, the solubility (mole fraction) (in THF, 308.15 K) was 9.96e-05, the solubility (mole fraction) (in THF, 313.15 K) was 0.000203 and the solubility (mole fraction) (in THF, 318.15 K) was 0.000354. It also gave a solubility (mole fraction) (in THF, 323.15 K) of 0.000527, a solubility (mole fraction) (in THF, 328.15 K) of 0.000715 and a solubility (mole fraction) (in THF, 333.15 K) of 0.000892. It also gave a solubility (mole fraction) (in acetonitrile, 293.15 K) of 1.6e-06, a solubility (mole fraction) (in acetonitrile, 298.15 K) of 3.2e-06 and a solubility (mole fraction) (in acetonitrile, 303.15 K) of 5.6e-06. It also gave a solubility (mole fraction) (in acetonitrile, 308.15 K) of 9.2e-06, a solubility (mole fraction) (in acetonitrile, 313.15 K) of 1.41e-05 and a solubility (mole fraction) (in acetonitrile, 318.15 K) of 2.01e-05. For the same compound, the solubility (mole fraction) (in acetonitrile, 323.15 K) was 2.73e-05, the solubility (mole fraction) (in acetonitrile, 328.15 K) was 3.62e-05 and the solubility (mole fraction) (in acetonitrile, 333.15 K) was 4.71e-05. For the same compound, the solubility (mole fraction) (in ethanol, 293.15 K) was 2.08e-05, the solubility (mole fraction) (in ethanol, 298.15 K) was 3.75e-05 and the solubility (mole fraction) (in ethanol, 303.15 K) was 6.27e-05. For the same compound, the solubility (mole fraction) (in ethanol, 308.15 K) was 0.000104, the solubility (mole fraction) (in ethanol, 313.15 K) was 0.000155 and the solubility (mole fraction) (in ethanol, 318.15 K) was 0.000216. For the same compound, the solubility (mole fraction) (in ethanol, 323.15 K) was 0.00029, the solubility (mole fraction) (in ethanol, 328.15 K) was 0.000382 and the solubility (mole fraction) (in ethanol, 333.15 K) was 0.0005. For the same compound, the solubility (mole fraction) (in ethyl acetate, 293.15 K) was 4.3e-06, the solubility (mole fraction) (in ethyl acetate, 298.15 K) was 6e-06 and the solubility (mole fraction) (in ethyl acetate, 303.15 K) was 7.8e-06. It also gave a solubility (mole fraction) (in ethyl acetate, 308.15 K) of 1.04e-05, a solubility (mole fraction) (in ethyl acetate, 313.15 K) of 1.38e-05 and a solubility (mole fraction) (in ethyl acetate, 318.15 K) of 1.81e-05. The solubility (mole fraction) (in ethyl acetate, 323.15 K) was 2.24e-05, the solubility (mole fraction) (in ethyl acetate, 328.15 K) was 2.76e-05 and the solubility (mole fraction) (in ethyl acetate, 333.15 K) was 3.37e-05. The solubility (mole fraction) (in isopropanol, 293.15 K) was 7.7e-06, the solubility (mole fraction) (in isopropanol, 298.15 K) was 1.47e-05 and the solubility (mole fraction) (in isopropanol, 303.15 K) was 2.59e-05. For the same compound, the solubility (mole fraction) (in isopropanol, 308.15 K) was 4.71e-05, the solubility (mole fraction) (in isopropanol, 313.15 K) was 7.77e-05 and the solubility (mole fraction) (in isopropanol, 318.15 K) was 0.000118. It also gave a solubility (mole fraction) (in isopropanol, 323.15 K) of 0.000174, a solubility (mole fraction) (in isopropanol, 328.15 K) of 0.000246 and a solubility (mole fraction) (in isopropanol, 333.15 K) of 0.000355. For the same compound, the solubility (mole fraction) (in methanol, 293.15 K) was 0.000159, the solubility (mole fraction) (in methanol, 298.15 K) was 0.000222 and the solubility (mole fraction) (in methanol, 303.15 K) was 0.000303. The solubility (mole fraction) (in methanol, 308.15 K) was 0.000409, the solubility (mole fraction) (in methanol, 313.15 K) was 0.000527 and the solubility (mole fraction) (in methanol, 318.15 K) was 0.000663. It also gave a solubility (mole fraction) (in methanol, 323.15 K) of 0.000816, a solubility (mole fraction) (in methanol, 328.15 K) of 0.000997 and a solubility (mole fraction) (in methanol, 333.15 K) of 0.00121. For the same compound, the solubility (mole fraction) (in n-butanol, 293.15 K) was 2.9e-06, the solubility (mole fraction) (in n-butanol, 298.15 K) was 5.3e-06 and the solubility (mole fraction) (in n-butanol, 303.15 K) was 1e-05. It also gave a solubility (mole fraction) (in n-butanol, 308.15 K) of 1.77e-05, a solubility (mole fraction) (in n-butanol, 313.15 K) of 3.06e-05 and a solubility (mole fraction) (in n-butanol, 318.15 K) of 5.12e-05. The solubility (mole fraction) (in n-butanol, 323.15 K) was 7.95e-05, the solubility (mole fraction) (in n-butanol, 328.15 K) was 0.00012 and the solubility (mole fraction) (in n-butanol, 333.15 K) was 0.00019. For the same compound, the solubility (mole fraction) (in n-propanol, 293.15 K) was 5.9e-06, the solubility (mole fraction) (in n-propanol, 298.15 K) was 8.2e-06 and the solubility (mole fraction) (in n-propanol, 303.15 K) was 1.3e-05. The solubility (mole fraction) (in n-propanol, 308.15 K) was 2.06e-05, the solubility (mole fraction) (in n-propanol, 313.15 K) was 3.41e-05 and the solubility (mole fraction) (in n-propanol, 318.15 K) was 5.83e-05. It also gave a solubility (mole fraction) (in n-propanol, 323.15 K) of 0.000104, a solubility (mole fraction) (in n-propanol, 328.15 K) of 0.000198 and a solubility (mole fraction) (in n-propanol, 333.15 K) of 0.000355. The solubility (mole fraction) (in water, 293.15 K) was 0.000127, the solubility (mole fraction) (in water, 298.15 K) was 0.000183 and the solubility (mole fraction) (in water, 303.15 K) was 0.000267. For the same compound, the solubility (mole fraction) (in water, 308.15 K) was 0.000362, the solubility (mole fraction) (in water, 313.15 K) was 0.00048 and the solubility (mole fraction) (in water, 318.15 K) was 0.000634. The solubility (mole fraction) (in water, 323.15 K) was 0.000816, the solubility (mole fraction) (in water, 328.15 K) was 0.00105 and the solubility (mole fraction) (in water, 333.15 K) was 0.00136.
